From article PMC7037393, “Synthesis, Structural, and Cytotoxic Properties of New Water-Soluble Copper(II) Complexes Based on 2,9-Dimethyl-1,10-Phenanthroline and Their One Derivative Containing 1,3,5-Triaza-7-Phosphaadamantane-7-Oxide” (Molecules, 2020)
Read-outs that look alike come from different tables or passages of the source.

What was measured:
[1] = system: LoVo (human colorectal adenocarcinoma); parameters: method as in earlier work; conditions: cited from earlier work
[2] = system: MCF7 (human breast adenocarcinoma); parameters: method as in PMID 31237306; conditions: cited from earlier work
[3] = system: A549 (human lung carcinoma); parameters: method as in PMID 31237306; conditions: cited from earlier work
[4] = system: HeLa (human cervix carcinoma); parameters: method as in PMID 31237306; conditions: cited from earlier work
NHDF cells [5] = system: NHDF cells; parameters: method as in PMID 31237306; conditions: cited from earlier work
[6] = system: HeLa (human cervix carcinoma); assay: Cytotoxicity on HeLa cells, quantitative suspension test according to EN 14476; assay type: cell-based; conditions: observed 4 days, aqua media
Method: (§1) Normal human dermal fibroblasts (NHDF) (PromoCell, C-12302) were used as normal cells and LoVo (human colorectal adenocarcinoma, ATCC® CCL-229™), A549 (human lung carcinoma, ATCC, No. CCL-185 TM), MCF-7 (human breast adenocarcinoma, ATCC, No. HTB-22^TM) and HeLa (human cervix carcinoma, ATCC, No. CCL-2 TM) were used as cancer cells. They were cultured in DMEM, DMEM–F12 or EMEM (Lonza, CA, USA). Media were supplemented with 10% FBS (Biological Industries, Kibbutz Beit-Haemek, Israel), 2 mM L-glutamine (Biological Industries, Israel), 100 U/mL of penicillin and 100 µg/mL of streptomycin (Sigma, Neustadt an der Weinstrasse, Germany).
(§2) The 100 μL of suspension of NHDF, A549, HeLa, LoVo, and MCF7 cells at a density of 4 × 10^4 cells mL^−1 were incubated in a 96-well polystyrene plate (NUNC, Denmark) for 24 h. Product test solutions were prepared in DMEM, DMEM–F12, or EMEM supplemented with additional 2% FBS and 2 mM L-glutamine. Solutions of the reagents at concentrations from 460 (for 1), 454 (2), […] (3), 1242 (Cu(NO3)2), 1732 (PTA=O), and 1440 µM (dmphen) to 4.60 × 10^−6, 4.54 × 10^−6, 4.69 × 10^−6, 1.24 × 10^−5, 1.73 × 10^−5, and 1.44 × 10^−5 µM, respectively, were prepared and transferred (100 μL) into cell culture units (wells of microtiter plates) containing monolayer of cells. Eight units were inoculated with each dilution. Plates were incubated in 37 °C, 5% CO2 and observed daily for 4 days for the development of cytotoxic effect, using an inverted microscope (Olympus Corp., Hamburg, Germany, Axio Observer, Carl Zeiss MicroImaging GmbH). Then the wells were washed in phosphate buffered saline (PBS) and stained using DAPI (4′,6-diamidino-2-phenylindole) and propidium iodide (Merck, Darmstadt, Germany). The study used the fact that DAPI is able to be combined with cellular DNA, permeate through the membrane of cell, rapidly enter the nucleus of living cells and bind with DNA to form a DAPI-DNA complex. […] In cell culture these are cells that are apoptotic or damaged by any physical or chemical agent. Therefore, if these two fluorochrome are given at the same time, DAPI will get to healthy cells faster, while propidium iodide will stain dead or dying cells. The calculation of the ratio of cells counted on a specific area, allows to determine the potency of a substance in inhibiting a specific biological function (IC50).

[7] = system: MCF7 (human breast adenocarcinoma); assay: Cytotoxicity on MCF7 cells, quantitative suspension test according to EN 14476; assay type: cell-based; conditions: observed 4 days, aqua media
Method: as §1, §2

NHDF cells [8] = assay: Cytotoxicity on normal human dermal fibroblasts, quantitative suspension test according to EN 14476 (DAPI/propidium iodide); assay type: cell-based; conditions: observed 4 days, aqua media
Method: as §1, §2

[9] = system: A549 (human lung carcinoma); assay: Cytotoxicity on A549 cells, quantitative suspension test according to EN 14476; assay type: cell-based; conditions: observed 4 days, aqua media
Method: as §1, §2

[10] = system: LoVo (human colorectal adenocarcinoma); assay: Cytotoxicity on LoVo cells, quantitative suspension test according to EN 14476; assay type: cell-based; conditions: observed 4 days, aqua media
Method: as §1, §2

apo-Tf = conditions: cited from earlier work
A549 cell line = conditions: read-out: IC50 value for A549 cell line; cited from earlier work
[11] = system: normal cell lines like MRC5, HEK293T, or HaCat; conditions: cited from earlier work
A549 or HeLa lines = conditions: cited from earlier work
[12] = read-out: IC50 value, cytotoxic effect on A549 or HeLa lines, A549 or HeLa

N.N.[Cl][Pt][Cl] [Cisplatin]
IC50 [1]: 9.12 ± 0.005 µM
IC50 [2]: 33.3 ± 4.2 µM
IC50 [3]: 33.3 ± 4.2 µM
IC50 [4]: 16.6 ± 3.1 µM
IC50 (NHDF cells [5]): 16.6 ± 2.1 µM

O=[N+]([O-])[O-].O=[N+]([O-])[O-].[Cu+2] [Cu(NO3)2, reference compound]
IC50 [6]: 19.1 ± 2.9 µM
IC50 [7]: 155 ± 23 µM
IC50 (NHDF cells [8]): 310 ± 47 µM
IC50 [9]: 155 ± 23 µM
IC50 [10]: 38.8 ± 5.8 µM

Cc1ccc2ccc3ccc(C)nc3c2n1 [Dmphen, 2,9-dimethyl-1,10-phenanthroline]
IC50 ([6]; Homo sapiens, 96 h): 720 ± 108 µM
IC50 ([10]; Homo sapiens, 96 h): 360 ± 54 µM

CS(C)=O.[Cl-].[Cl-].[Cl-].[Cl-].[Ru+3].c1c[nH+]c[nH]1.c1c[nH]cn1 [NAMI-A, Imidazolium-trans-tetrachloro(dimethylsulfoxide)imidazoleruthenium(III)]
association constant with apo-Tf (apo-Tf): 12800 M⁻¹

COc1ccc(P(CO)c2ccc(OC)cc2)cc1.Cc1ccc2ccc3ccc(C)nc3c2n1.[Cu+].[I-] [[Cu(iodide)(dmphen)(P(p-OCH3-Ph)2CH2OH)]]
IC50 (A549 cell line): 62 µM
concentration toxic for normal cell lines [11]: 32 to 43 µM

[Cr+3].c1cnc2c(c1)ccc1cccnc12.c1cnc2c(c1)ccc1cccnc12.c1cnc2c(c1)ccc1cccnc12 [chromium(III)-phen]
association constant, apo-Tf system (apo-Tf): 150000 M⁻¹

[Cu2(sal-D,L-glu)2(imidazole)2]
IC50 (A549 or HeLa lines): > 100 µM

[Cu2(sal-D,L-glu)2(isoquinoline)2]∙2EtOH
IC50 (A549 or HeLa lines; [12]): > 100 µM

[Cu(EtOH)2(imidazole)4]
IC50 (A549 or HeLa lines): > 100 µM

[Cu(iodide)(dmphen)(P(p-OCH3-Ph)2CH2-SarGly)]
IC50 (A549 cell line): > 100 µM

[Cu(sal-5-met-L-glu)(H2O)]∙H2O
IC50 (A549 or HeLa lines; [12]): > 100 µM
